Experimental data published in patent publication US20190233884A1 (University of Southern California, priority 2016, published 2019).

Tested on: patients with refractory metastatic colorectal cancer (mCRC)
Assay: PFS, OS and disease control in the testing (validation) cohort of refractory mCRC patients receiving TAS-102 (n=129, Italy), by baseline characteristics, SNP genotype and toxicity
Format: in vivo, human
Protocol: All patients underwent the treatment in salvage-line setting. […]
(§1) Genomic DNA was extracted from peripheral whole blood in patients of all cohorts using the QIAmp Kit (Qiagen, Valencia, Calif., USA) according to the manufacturer's protocol (www.qiagen.com). The candidate SNPs were genotyped using PCR-based direct DNA sequence analysis by ABI 3100A Capillary Genetic Analyzer and Sequencing Scanner v1.0 (Applied Biosystems). Amplification of extracted DNA was carried out using both forward and reverse primers for each gene polymorphism as shown in Table 1. […] The investigators analyzing SNPs were blinded to the clinical data of the study patients.
The primary endpoint in this study was progression-free survival (PFS), and the secondary endpoints were overall survival (OS) and disease control rate (DCR). PFS was calculated from the date of starting treatment to the first observation of disease progression or death from any cause. If a patient had no disease progression or death, PFS was censored at the date of last follow up. OS was calculated from the date of starting treatment until the date of death from any cause or the date of the last follow-up, at which point OS was censored. The disease control rate (DCR) was defined as the proportion of patients who achieved a stable disease (SD) or […] according to RECISTv1.1. Chi-square test was used to examine the difference in baseline patient characteristics among the three cohorts. Allelic distribution of all SNPs by ethnicity for deviation from Hardy-Weinberg equilibrium and the allelic frequencies of SNPs were tested using the Chi-square tests with one degree of freedom. The associations between candidate SNPs and disease control, and toxicities were examined using contingency tables and Fisher's exact test. The associations of SNPs with PFS and OS were analysed using Kaplan-Meier curves and the log-rank test. Because the true mode of inheritance of candidate SNPs was not established yet, a codominant or dominant genetic model if appropriate was considered.
All patients underwent the treatment in salvage-line setting. […] In all patients, adverse events were graded according to the Common Terminology Criteria for Adverse Events, version 4.0. […]
as §1, with “tested” for “genotyped”, “Biosystems).” for “Biosystems). Amplification of extracted DNA was carried out using both forward and reverse primers for each gene polymorphism as shown in Table 1.”, “data.” for “data of the study patients.”
The primary endpoint in this study was progression-free survival (PFS), and the secondary endpoints were overall survival (OS) and disease control rate (DCR).

[1] = validation cohort, Performance status ECOG 1+ vs ECOG 0 (Ref.), univariate
[2] = validation cohort, Peritoneal No
[3] = validation cohort, Peritoneal No vs Yes (Ref.), univariate
[4] = validation cohort, Peritoneal Yes
[5] = validation cohort, Pre-chemo numbers <4
[6] = validation cohort, Pre-chemo numbers ≥4
[7] = validation cohort, Pre-chemo numbers ≥4 vs <4 (Ref.), univariate
[8] = validation cohort, Previous anti-EGFR No
[9] = validation cohort, Previous anti-EGFR No vs Yes (Ref.), univariate
[10] = validation cohort, Previous anti-EGFR Yes
[11] = validation cohort, Previous anti-VEGF No
[12] = validation cohort, Previous anti-VEGF No vs Yes (Ref.), univariate
[13] = validation cohort, Previous anti-VEGF Yes
[14] = validation cohort, Primary tumor resection No
[15] = validation cohort, Primary tumor resection No vs Yes (Ref.), univariate
[16] = validation cohort, Primary tumor resection Yes
[17] = validation cohort, Prior REGORA No
[18] = validation cohort, Prior REGORA No vs Yes (Ref.), univariate
[19] = validation cohort, Prior REGORA Yes
[20] = validation cohort, RAS status Mutant
[21] = validation cohort, RAS status Mutant vs Wild type (Ref.), univariate
[22] = validation cohort, RAS status Wild type
[23] = validation cohort, Sex Female vs Male (Ref.), univariate
[24] = validation cohort, Time to metastasis Metachronous
[25] = validation cohort, Time to metastasis Metachronous vs Synchronous (Ref.), univariate
[26] = validation cohort, Time to metastasis Synchronous
[27] = validation cohort, Tumor site Left
[28] = validation cohort, Tumor site Left vs Right (Ref.), univariate
[29] = validation cohort, Tumor site Right
[30] = validation cohort, XRCC3 rs861539 A/A
[31] = validation cohort, XRCC3 rs861539 A/A vs Any G (Ref.), multivariable
[32] = validation cohort, XRCC3 rs861539 A/A vs Any G (Ref.), univariate
[33] = validation cohort, XRCC3 rs861539 A/A vs G/G (Ref.), multivariable
[34] = validation cohort, XRCC3 rs861539 A/A vs G/G (Ref.), univariate
[35] = validation cohort, XRCC3 rs861539 Any A
[36] = validation cohort, XRCC3 rs861539 Any A vs G/G (Ref.), multivariable
[37] = validation cohort, XRCC3 rs861539 Any A vs G/G (Ref.), univariate
[38] = validation cohort, XRCC3 rs861539 Any G
[39] = validation cohort, XRCC3 rs861539 G/A
[40] = validation cohort, XRCC3 rs861539 G/A vs G/G (Ref.), multivariable
[41] = validation cohort, XRCC3 rs861539 G/A vs G/G (Ref.), univariate
[42] = validation cohort, XRCC3 rs861539 G/G
[43] = validation cohort, ATM rs609429 any G allele
[44] = validation cohort, ATM rs609429 any G vs C/C, univariate
[45] = whole testing (validation) cohort

Trifluridine/tipiracil [TAS-102]
HR OS [1]: 2.15
HR PFS [1]: 1.43
Median OS [2]: 9.0 months
Median PFS [2]: 2.0 months
HR OS [3]: 0.80
HR PFS [3]: 0.74
Median OS [4]: 5.3 months
Median PFS [4]: 1.9 months
Median OS [5]: 5.1 months
Median PFS [5]: 1.9 months
Median OS [6]: 8.7+ months
Median PFS [6]: 2.1 months
HR OS [7]: 0.57
HR PFS [7]: 0.66
Median OS [8]: 4.4 months
Median PFS [8]: 1.9 months
HR OS [9]: 2.63
HR PFS [9]: 1.53
Median OS [10]: 8.8+ months
Median PFS [10]: 2.1 months
Median OS [11]: 6.6+ months
Median PFS [11]: 2.8 months
HR OS [12]: 0.60
HR PFS [12]: 0.67
Median OS [13]: 5.5 months
Median PFS [13]: 2.0 months
Median OS [14]: 3.9 months
Median PFS [14]: 1.8 months
HR OS [15]: 1.87
HR PFS [15]: 2.13
Median OS [16]: 9.0 months
Median PFS [16]: 2.0 months
Median OS [17]: 5.4 months
Median PFS [17]: 2.0 months
HR OS [18]: 1.36
HR PFS [18]: 1.20
Median OS [19]: 8.7+ months
Median PFS [19]: 2.0 months
Median OS [20]: 5.1 months
Median PFS [20]: 1.9 months
HR OS [21]: 1.48
HR PFS [21]: 1.21
Median OS [22]: 8.8+ months
Median PFS [22]: 2.0 months
Median OS (validation cohort, Sex Female): 5.3 months
Median PFS (validation cohort, Sex Female): 2.1 months
HR OS [23]: 1.22
HR PFS [23]: 0.98
Median OS (validation cohort, Sex Male): 9.0 months
Median PFS (validation cohort, Sex Male): 1.9 months
Median OS [24]: 8.5+ months
Median PFS [24]: 2.0 months
HR OS [25]: 0.59
HR PFS [25]: 0.75
Median OS [26]: 5.2 months
Median PFS [26]: 1.9 months
Median OS [27]: 9.0 months
Median PFS [27]: 2.0 months
HR OS [28]: 0.78
HR PFS [28]: 1.07
Median OS [29]: 5.1 months
Median PFS [29]: 1.9 months
Disease Control CR/PR/SD, patients n (%) [30]: 3 (12%)
Median OS (95% CI) [30]: 4.2 (3.6, 8.8+) months
Median PFS (95% CI) [30]: 1.9 (1.8, 2.0) months
PD, patients n (%) [30]: 22 (88%)
HR OS (95% CI) [31]: 1.05 (0.56, 1.97)
HR PFS (95% CI) [31]: 1.30 (0.81, 2.09)
HR OS (95% CI) [32]: 1.29 (0.70, 2.39)
HR PFS (95% CI) [32]: 1.37 (0.86, 2.18)
HR OS (95% CI) [33]: 0.93 (0.46, 1.88)
HR PFS (95% CI) [33]: 1.26 (0.74, 2.14)
HR OS (95% CI) [34]: 1.13 (0.57, 2.22)
HR PFS (95% CI) [34]: 1.34 (0.80, 2.25)
Disease Control CR/PR/SD, patients n (%) [35]: 19 (26%)
Median OS (95% CI) [35]: 5.8 (4.1, 9.0+) months
Median PFS (95% CI) [35]: 2.0 (1.9, 2.1) months
PD, patients n (%) [35]: 55 (74%)
HR OS (95% CI) [36]: 0.84 (0.47, 1.49)
HR PFS (95% CI) [36]: 1.05 (0.69, 1.60)
HR OS (95% CI) [37]: 0.88 (0.51, 1.54)
HR PFS (95% CI) [37]: 1.07 (0.72, 1.61)
Disease Control CR/PR/SD, patients n (%) [38]: 32 (32%)
Median OS (95% CI) [38]: 5.8 (4.7, 9.0+) months
Median PFS (95% CI) [38]: 2.0 (1.9, 2.3) months
PD, patients n (%) [38]: 67 (68%)
Disease Control CR/PR/SD, patients n (%) [39]: 16 (33%)
Median OS (95% CI) [39]: 9.0 (4.6, 9.0+) months
Median PFS (95% CI) [39]: 2.0 (1.9, 2.3) months
OS [39]: 9.0 months
PD, patients n (%) [39]: 33 (67%)
HR OS (95% CI) [40]: 0.79 (0.41, 1.51)
HR PFS (95% CI) [40]: 0.95 (0.59, 1.51)
HR OS (95% CI) [41]: 0.75 (0.40, 1.43)
HR PFS (95% CI) [41]: 0.96 (0.62, 1.50)
Disease Control CR/PR/SD, patients n (%) [42]: 16 (32%)
Median OS (95% CI) [42]: 5.5 (3.6, 8.7+) months
Median PFS (95% CI) [42]: 2.1 (1.7, 2.5) months
PD, patients n (%) [42]: 34 (68%)
OS [43]: not reached
PFS [43]: 2.0 months
HR for OS [44]: 0.73
HR for PFS [44]: 0.78
OS (validation cohort, XRCC3 rs861539 C/C variant (so in the source)): 5.5 months
HR for OS (validation cohort, XRCC3 rs861539 G/A vs C/C (so in the source)): 0.75
Median OS [45]: 5.7 months
Median PFS [45]: 2.0 months
